How the values were obtained:
Format in all cases: functional, cell-based
P388 = assay: Cytotoxicity against mouse P388 cells by dilution assay
A549 = assay: Cytotoxicity against human A549 cells by dilution assay
HT-29 = assay: Cytotoxicity against human HT-29 cells by dilution assay

Measured: IC50

CC1=C(CCC(C)(O)/C=C/C[C@@]2(C)CC[C@H]([C@H](C)C(=O)O)OO2)C(C)(C)CCC1 (some centres undefined) [TASNEMOXIDE A]
> 1 µg/mL: all assays above

C=C(CCC1=C(C)CCCC1(C)C)C(O)CC[C@@]1(C)CC[C@H]([C@H](C)C(=O)O)OO1 (some centres undefined) [TASNEMOXIDE B]
> 1 µg/mL: all assays above

C=C(CCC[C@@]1(C)CC[C@H]([C@H](C)C(=O)OC)OO1)CCC1(O)C(=C)CCCC1(C)C (some centres undefined) [TASNEMOXIDE C]
> 1 µg/mL: all assays above
